Literature values in patent US7872044B2, “Inhibitors of chymase” (Janssen Pharmaceutica NV, priority 2006, dated 2011).

Test system: angiotensin II activity in human vascular extracts
Conditions: background statement

NCCCC[C@H](N[C@@H](CCc1ccccc1)C(=O)O)C(=O)N1CCC[C@H]1C(=O)O [lisinopril]
angiotensin II activity inhibited: about 8%
